{
  "source": "patent US9732091B2",
  "about": "“Tryptophanol-derived oxazoloisoindolinones: small-molecule P53 activators” (UNIVERSIDADE DO PORTO, priority 2013, dated 2017)",
  "key": {"[1]": {"assay": "apparent permeability coefficients", "assay_type": "in vitro ADME"}, "MDA-MB-231 (p53R280K)": {"test_system": "MDA-MB-231 (p53R280K)", "assay": "SRB growth inhibition assay in MDA-MB-231 breast cancer cells", "assay_type": "cell-based, human", "details": "Homo sapiens, 48 hours incubation, mean±S.E.M.", "procedure": "(§1) Tumor cells were plated at 7.5×10^3 cells/well in 96-well plates and incubated for 24 hours. Cells were then exposed to serial dilutions of SLMP53-1, CP-31398 or PRIMA-1 (from 1.85 to 150 μM). The effect of the compounds was analyzed following 48 hours incubation period, using the sulforhodamine B (SRB) assay. The solvent DMSO corresponding to the maximum concentration used in these assays (0.025%) was included as control. The GI50 value, which is the concentration of compound that causes 50% growth inhibition, was calculated for the tested compounds. Results are the mean±S.E.M. of three independent experiments."}, "mutant p53 R273H": {"target": "T1, mutant p53 R273H (Homo sapiens, UniProt P04637, R273H)", "T1 construct": "expressed in transfected cells", "assay": "reactivation of mutant p53 in yeast (growth, CFU), R273H", "assay_type": "cell-based", "details": "10 μM; yeast expressing R273H; 44 hours", "procedure": "(§2) FIG. 6 illustrates that SLMP53-1 reactivates mutant p53s R273H, R175H and R280K in yeast. Yeast cells expressing R273H, R280K, Y220C or R175H were incubated in selective medium with 10 μM of SLMP53-1, 10 μM of CP-31398 (for R273H), 10 μM of PRIMA-1 (for R175H and R280K), 50 μM of PhiKan 083 (for Y220C) or DMSO only, for 44 hours. CP-31398, PRIMA-1 and PhiKan 083 were used as positive controls. Results are plotted setting as 100% growth the number of CFU obtained in the presence of DMSO only.\n(§3) It is also shown that SLMP53-1 can reactivate some mutant p53 forms, particularly R273H, R280K and R175H (FIG. 6)."}, "HCT116 p53^+/+ [2]": {"test_system": "HCT116 p53^+/+", "assay": "Western blot of p53 and p53-target proteins, PARP cleavage, HCT116 p53^+/+", "assay_type": "cell-based, human", "procedure": "FIG. 2 illustrates that SLMP53-1 increases the levels of proteins encoded by p53 target genes (MDM2, p21, PUMA and BAX), and leads to PARP cleavage in colon carcinoma cells with wt p53 (HCT116 p53^+/+), but not in colon carcinoma cells without wt p53 (HCT116 p53^−/−). Western blot analysis was performed for human colon carcinoma cells after 16 (B, D, E) and 24 (A, C, F) hours treatment with 15.5 μM of SLMP53-1, 135 nM doxorubicin (DOXO; positive control) or DMSO only. The protein expression levels were evaluated by quantification of Western Blot band intensity (with Bio-Profile Bio-1D++ software) using GAPDH as loading control."}, "HCT116 p53^+/+ [3]": {"test_system": "HCT116 p53^+/+", "assay": "SRB growth inhibition assay in HCT116 p53^+/+ colon carcinoma cells", "assay_type": "cell-based, human", "procedure": "as §1, with “5.0×10^3” for “7.5×10^3”, “incubation,” for “incubation period,”, “value,” for “value, which is”"}, "human lymphocytes": {"test_system": "human lymphocytes", "assay": "cytokinesis-block micronucleus assay", "assay_type": "cell-based", "procedure": "Concerning the genotoxicity assays, three concentrations (15.5, 7.25 and 1.55 μM) of SLMP53-1 were tested, in vitro, for potential genotoxicity to human lymphocytes. For that purpose, the cytokinesis-block micronucleus assay (an assay routinely used in mutagen/carcinogen screening programs) was used, which measures the ability of genotoxic agents to induce both chromosomal damage (clastogenic) and/or spindle dysfunction (aneugenic) effects."}, "mutant p53 R175H": {"target": "T2, mutant p53 R175H (Homo sapiens, UniProt P04637, R175H)", "T2 construct": "expressed in transfected cells", "assay": "reactivation of mutant p53 in yeast (growth, CFU), R175H", "assay_type": "cell-based", "details": "10 μM; yeast expressing R175H; 44 hours", "procedure": "as §2, §3"}, "HCT116 p53^+/+ tumors": {"test_system": "HCT116 p53^+/+ tumors", "assay": "xenograft mouse model, HCT116 p53^+/+ tumors", "assay_type": "in vivo, BALB/c mice", "details": "four intraperitoneal injections of 50 mg/kg, vs vehicle, preliminary", "procedure": "FIG. 10 illustrates the antitumor activity of SLMP53-1 in vivo. BALB/c mice, 4-6 weeks old, were implanted subcutaneous xenografts using 1.5×10^6 HCT116 p53^+/+ or HCT116 p53^−/− cells. The treatment was initiated when palpable tumors were established (14 days after the cells were injected), and consisted in 4 intraperitoneal injections (2× per week) of vehicle (control) or 50 mg/kg of SLMP53-1. Xenografts were measured during 24 days. Relative tumor volumes were plotted for control and treated groups by dividing the average tumor volume for each data point by average starting tumor volume.\nCurrently, the toxicity and antitumor activity of SLMP53-1 are under study in vivo using xenograft mouse models. […] Because p53-null tumors were not suppressed, it was confirmed that SLMP53-1 inhibited the tumor growth in a wt p53-dependent manner."}, "mutant p53 R280K": {"target": "T3, mutant p53 R280K (Homo sapiens, UniProt P04637, R280K)", "T3 construct": "expressed in transfected cells", "assay": "reactivation of mutant p53 in yeast (growth, CFU), R280K", "assay_type": "cell-based", "details": "10 μM; yeast expressing R280K; 44 hours", "procedure": "as §2, §3"}, "[4]": {"details": "HCT116 p53^+/+ vs HCT116 p53^−/−"}},
  "data": [
    {"compound": "C[C@]12OC[C@H](Cc3c[nH]c4ccccc34)N1C(=O)c1ccccc12", "note": "[SLMP53-1]", "values": [
      {"measurement": "apparent permeability coefficients", "setting": "[1]", "value": "favorable"},
      {"measurement": "GI50", "setting": "MDA-MB-231 (p53R280K)", "value": "16.6 ± 4.2", "unit": "µM"},
      {"measurement": "yeast growth inhibition", "setting": "mutant p53 R273H", "value": "significant growth inhibition"},
      {"measurement": "protein levels of p53 and of MDM2, p21, PUMA and BAX", "setting": "HCT116 p53^+/+ [2]; 15.5 μM (GI50), 16 and 24 hours", "value": "increased"},
      {"measurement": "PARP cleavage", "setting": "HCT116 p53^+/+ [2]; 24 hours", "value": "led to PARP cleavage"},
      {"measurement": "GI50 in HCT116 p53^+/+ cells lower than in HCT116 p53^−/− cells", "setting": "HCT116 p53^+/+ [3]; [4]", "value": 2, "unit": "fold"},
      {"measurement": "p53 dependence of anti-proliferative effect", "setting": "HCT116 p53^+/+ [3]; [4]", "value": "p53-dependent anti-proliferative effect"},
      {"measurement": "GI50", "setting": "HCT116 p53^+/+ [3]; Homo sapiens, HCT-116, HCT116 p53^+/+, 48 hours incubation, SRB, mean±S.E.M.", "value": "15.5 ± 1.6", "unit": "µM"},
      {"measurement": "cytotoxic and genotoxic effects", "setting": "human lymphocytes", "value": "no cytotoxic and genotoxic effects were observed"},
      {"measurement": "mutagenic potential (micronuclei frequency vs negative control)", "setting": "human lymphocytes; 15.5, 7.25 and 1.55 μM, human lymphocytes, in vitro", "value": "does not possess mutagenic potential"},
      {"measurement": "yeast growth inhibition", "setting": "mutant p53 R175H", "value": "significant growth inhibition"},
      {"measurement": "tumor growth", "setting": "HCT116 p53^+/+ tumors", "value": "considerably suppressed"},
      {"measurement": "yeast growth inhibition", "setting": "mutant p53 R280K", "value": "significant growth inhibition"}
    ]}
  ]
}
